We go through twelve compounds from patent US20100056544A1, “Salts with CRTH2 Antagonist Activity” (Oxagen Limited, priority 2007, published 2010).

The conditions of data set [1]: cited from earlier work; for pKa of base: Table 5; for pKa 1: pKa value of base, Tables 2-4.
Data set [2] in a line: Solubility of the salts in water determined by HPLC, with pH of the filtered mixtures. The note with it: for Solubility: HPLC grade water, stirred 18 hours at 15 to 25° C., filtered, HPLC.
A short description of data set [3]: basic solubility screen of Compound 1 free acid in solvents. The data set is classed as physicochemical. The note with it: for Solution Yes/No 20 vol R.T.: 50 mg, stirred at 15 to 25° C.
Where [4] appears, read: pH of the filtered mixtures in water.

Like-named read-outs stand apart in the source and are kept apart here.

`OCCN1CCCC1` [1-(2-Hydroxyethyl)pyrrolidine]: in data set [1], the pKa of base was 9.4 and the “pKa 1” value was 9.4.
In the case of `OCCN1CCOCC1` [4-(2-Hydroxyethyl)morpholine], in data set [1], the pKa of base was 7.4 and the “pKa 1” value is recorded as 7.4.
Turning to `Cc1c(Cc2ccc3ccccc3n2)c2cc(F)ccc2n1CC(=O)O` [Ammonium, (5-fluoro-2-methyl-3-quinolin-2-ylmethyl-indol-1-yl)acetic acid], in data set [2], the pH worked out at 8 and the Solubility (commonly how much of the substance goes into solution per volume) amounted to 4.98 mg/mL.
Consider `C[N+](C)(C)CC(=O)O` [Betaine], for which, in data set [1], the pKa of base is given as 12.2.
Turning to `C[N+](C)(C)CCO` [Choline], in data set [1], the pKa of base is listed as above 11 and the “pKa 1” value is listed as above 11.
On to `Cc1c(Cc2ccc3ccccc3n2)c2cc(F)ccc2n1CC(=O)O` [Compound 1, (5-fluoro-2-methyl-3-quinolin-2-ylmethyl-indol-1-yl)acetic acid], for which the Solubility was 0.05 mg/mL in data set [2] and below 25 mg/mL in data set [3] (variety of solvents (Table 1), organic solvent or mixture, thermodynamic from solid). For the same compound, in data set [2] (setting [4]), the pH is listed as 7. Also, in data set [3] (NMP at 15 to 25° C. after obtaining a solution at 100° C.), the “solubility in NMP (50 mg retained in 20 vol)” value was at least 50 mg per ml. Moreover, the “Solution Yes/No 20 vol reflux” value in data set [3] (solvent Acetone) is reported as “No”; in data set [3] (solvent Acetonitrile) it was “No”; in data set [3] (solvent Chloroform) it was “No”; in data set [3] (solvent DMF, heated to 100° C.), “No”; in data set [3] (solvent DMSO, heated to 100° C.) it was “Yes”; in data set [3] (solvent Ethanol), “No”. Further, the “Solution Yes/No 20 vol reflux” value in data set [3] (solvent Ethyl acetate) was “No”; in data set [3] (solvent Heptanes), “No”; in data set [3] (solvent IPA), “No”; in data set [3] (solvent Methanol), “No”; in data set [3] (solvent NMP, heated to 100° C.) it was “Yes”; in data set [3] (solvent TBME), “No”. In addition, the “Solution Yes/No 20 vol reflux” value in data set [3] (solvent Toluene) and in data set [3] (solvent Water) was “No” in each case. In addition, the “Solution Yes/No 40 vol reflux” value in data set [3] (solvent Acetone) was “No”; in data set [3] (solvent Acetonitrile), “No”; in data set [3] (solvent Chloroform), “No”; in data set [3] (solvent DMF, heated to 100° C.), “Yes”; in data set [3] (solvent Ethanol) it was “No”; in data set [3] (solvent Ethyl acetate) it was “No”. Besides, the “Solution Yes/No 40 vol reflux” value in data set [3] (solvent Heptanes), in data set [3] (solvent IPA), in data set [3] (solvent Methanol), in data set [3] (solvent TBME), in data set [3] (solvent Toluene) and in data set [3] (solvent Water) was “No” throughout. Further, the “Solution on cooling to R.T.” value in data set [3] (solvent Acetone), in data set [3] (solvent Acetonitrile), in data set [3] (solvent Chloroform), in data set [3] (solvent DMF), in data set [3] (solvent DMSO) and in data set [3] (solvent Ethanol) was “No” throughout. Further, the “Solution on cooling to R.T.” value was “No” in data set [3] (solvent Ethyl acetate); “No” in data set [3] (solvent Heptanes); “No” in data set [3] (solvent IPA); “No” in data set [3] (solvent Methanol); “Yes” in data set [3] (solvent NMP); “No” in data set [3] (solvent TBME). Further, the “Solution on cooling to R.T.” value in data set [3] (solvent Toluene) and in data set [3] (solvent Water) was “No” throughout. The “Solution Yes/No 20 vol R.T.” value in data set [3] (solvent Acetone), in data set [3] (solvent Acetonitrile), in data set [3] (solvent Chloroform), in data set [3] (solvent DMF), in data set [3] (solvent DMSO) and in data set [3] (solvent Ethanol) was “No” throughout. Also, the “Solution Yes/No 20 vol R.T.” value in data set [3] (solvent Ethyl acetate), in data set [3] (solvent Heptanes), in data set [3] (solvent IPA), in data set [3] (solvent Methanol), in data set [3] (solvent NMP) and in data set [3] (solvent TBME) was “No” in each case. Further, the “Solution Yes/No 20 vol R.T.” value in data set [3] (solvent Toluene) and in data set [3] (solvent Water) was “No” each time.
Turning to `c1c[nH]cn1` [Imidazole], in data set [1], the pKa of base is given as 7 and the “pKa 1” value is on record as 7.
Regarding `CNC[C@H](O)[C@@H](O)[C@H](O)[C@H](O)CO` [N-methyl Glucamine], the pKa of base in data set [1] is recorded as 8.
Regarding `Cc1c(Cc2ccc3ccccc3n2)c2cc(F)ccc2n1CC(=O)O` [Potassium, (5-fluoro-2-methyl-3-quinolin-2-ylmethyl-indol-1-yl)acetic acid], the Solubility in data set [2] came out at 32.36 mg/mL. In addition, the pH is listed as 12 in data set [2] (setting [4]) and 12 in data set [2] (pH of the filtered mixtures in water, listed as potassium). Moreover, the pKa of base in data set [1] is 14.0.
With `Cc1c(Cc2ccc3ccccc3n2)c2cc(F)ccc2n1CC(=O)O` [Sodium, (5-fluoro-2-methyl-3-quinolin-2-ylmethyl-indol-1-yl)acetic acid], the Solubility in data set [2] was determined as 84.28 mg/mL. Besides, the pH in data set [2] (setting [4]) came to 9. Further, in data set [2] (water), the “solubility in water compared (in words)” value was “most soluble”. Moreover, the pKa of base in data set [1] is 14.0.
On to `Cc1c(Cc2ccc3ccccc3n2)c2cc(F)ccc2n1CC(=O)O` [Tris, (5-fluoro-2-methyl-3-quinolin-2-ylmethyl-indol-1-yl)acetic acid], for which the Solubility in data set [2] came out at 3.26 mg/mL. Further, the pH in data set [2] (setting [4]) is 9. The pKa of base in data set [1] is recorded as 8.
On to Deanol, for which, in data set [1], the pKa of base is given as 8.8 and the “pKa 1” value is reported as 8.8.
